Test system: female 129S6/SvEv mice
Experiment: Forced swim test (FST), immobility time, after stress
Settings: 1 week prophylactic drug
[1] = Forced Swim Test Day 1, Dunnett test Sal vs. drug (0.025)
[2] = Forced Swim Test Day 1, Dunnett test Sal vs. drug (0.075)
[3] = Forced Swim Test Day 1, Dunnett test Sal vs. drug (0.1)
[4] = Forced Swim Test Day 1, Dunnett test Sal vs. drug (0.3)

N[C@]1(c2ccccc2Cl)CCC[C@H](O)C1=O [(2S,6S)-HNK]
p, Sal vs. drug, Dunnett test: Immobility Time (min 1), Forced Swim Test Day 2 (0.025 mg/kg): 0.9954 | p, Sal vs. drug, Dunnett test: Immobility Time (min 1-6), Forced Swim Test Day 2 (0.025 mg/kg): 0.9996 | p, Sal vs. drug, Dunnett test: Immobility Time (min 2), Forced Swim Test Day 2 (0.025 mg/kg): 0.9993 | p, Sal vs. drug, Dunnett test: Immobility Time (min 4), Forced Swim Test Day 2 (0.025 mg/kg): 0.9518 | p, Sal vs. drug, Dunnett test: Immobility Time (min 5), Forced Swim Test Day 2 (0.025 mg/kg): 0.9885 | p, Sal vs. drug, Dunnett test: Immobility Time (min 6), Forced Swim Test Day 2 (0.025 mg/kg): >0.9999 | p, Sal vs. drug, Dunnett test: Immobility Time Average (min 3-6), Forced Swim Test Day 2 (0.025 mg/kg): 0.9999 | * (significance), Sal vs. drug, Dunnett test: Immobility Time (min 1-6), Forced Swim Test Day 2 (0.075 mg/kg): ** (** p<0.01) | * (significance), Sal vs. drug, Dunnett test: Immobility Time (min 5), Forced Swim Test Day 2 (0.075 mg/kg): *** (*** p<0.0001) | * (significance), Sal vs. drug, Dunnett test: Immobility Time (min 6), Forced Swim Test Day 2 (0.075 mg/kg): ** (** p<0.01) | p, Sal vs. drug, Dunnett test: Immobility Time (min 1), Forced Swim Test Day 2 (0.075 mg/kg): 0.9993 | p, Sal vs. drug, Dunnett test: Immobility Time (min 1-6), Forced Swim Test Day 2 (0.075 mg/kg): 0.0025 | p, Sal vs. drug, Dunnett test: Immobility Time (min 2), Forced Swim Test Day 2 (0.075 mg/kg): 0.9998 | p, Sal vs. drug, Dunnett test: Immobility Time (min 4), Forced Swim Test Day 2 (0.075 mg/kg): 0.3169 | p, Sal vs. drug, Dunnett test: Immobility Time (min 5), Forced Swim Test Day 2 (0.075 mg/kg): <0.0001 | p, Sal vs. drug, Dunnett test: Immobility Time (min 6), Forced Swim Test Day 2 (0.075 mg/kg): 0.0013 | p, Sal vs. drug, Dunnett test: Immobility Time Average (min 3-6), Forced Swim Test Day 2 (0.075 mg/kg): 0.9990 | * (significance), Sal vs. drug, Dunnett test: Immobility Time (min 1), Forced Swim Test Day 2 (0.1 mg/kg): * (* p<0.05) | p, Sal vs. drug, Dunnett test: Immobility Time (min 1), Forced Swim Test Day 2 (0.1 mg/kg): 0.0291 | p, Sal vs. drug, Dunnett test: Immobility Time (min 1-6), Forced Swim Test Day 2 (0.1 mg/kg): 0.2191 | p, Sal vs. drug, Dunnett test: Immobility Time (min 2), Forced Swim Test Day 2 (0.1 mg/kg): 0.4741 | p, Sal vs. drug, Dunnett test: Immobility Time (min 4), Forced Swim Test Day 2 (0.1 mg/kg): 0.9995 | p, Sal vs. drug, Dunnett test: Immobility Time (min 5), Forced Swim Test Day 2 (0.1 mg/kg): 0.9990 | p, Sal vs. drug, Dunnett test: Immobility Time (min 6), Forced Swim Test Day 2 (0.1 mg/kg): 0.9952 | p, Sal vs. drug, Dunnett test: Immobility Time Average (min 3-6), Forced Swim Test Day 2 (0.1 mg/kg): 0.9623 | p, Sal vs. drug, Dunnett test: Immobility Time (min 1), Forced Swim Test Day 2 (0.3 mg/kg): 0.2627 | p, Sal vs. drug, Dunnett test: Immobility Time (min 1-6), Forced Swim Test Day 2 (0.3 mg/kg): 0.9993 | p, Sal vs. drug, Dunnett test: Immobility Time (min 2), Forced Swim Test Day 2 (0.3 mg/kg): 0.7509 | p, Sal vs. drug, Dunnett test: Immobility Time (min 4), Forced Swim Test Day 2 (0.3 mg/kg): 0.9997 | p, Sal vs. drug, Dunnett test: Immobility Time (min 5), Forced Swim Test Day 2 (0.3 mg/kg): 0.9882 | p, Sal vs. drug, Dunnett test: Immobility Time (min 6), Forced Swim Test Day 2 (0.3 mg/kg): 0.4546 | p, Sal vs. drug, Dunnett test: Immobility Time Average (min 3-6), Forced Swim Test Day 2 (0.3 mg/kg): 0.9999 | p, Sal vs. drug, Dunnett test: Immobility Time (min 1), Forced Swim Test Day 2 (2.5 mg/kg): 0.9998 | p, Sal vs. drug, Dunnett test: Immobility Time (min 1-6), Forced Swim Test Day 2 (2.5 mg/kg): 0.5400 | p, Sal vs. drug, Dunnett test: Immobility Time (min 2), Forced Swim Test Day 2 (2.5 mg/kg): >0.9999 | p, Sal vs. drug, Dunnett test: Immobility Time (min 4), Forced Swim Test Day 2 (2.5 mg/kg): 0.8764 | p, Sal vs. drug, Dunnett test: Immobility Time (min 5), Forced Swim Test Day 2 (2.5 mg/kg): 0.6601 | p, Sal vs. drug, Dunnett test: Immobility Time (min 6), Forced Swim Test Day 2 (2.5 mg/kg): 0.9992 | p, Sal vs. drug, Dunnett test: Immobility Time Average (min 3-6), Forced Swim Test Day 2 (2.5 mg/kg): 0.9957 | p, Sal vs. drug, Dunnett test: Immobility Time (min 1), Forced Swim Test Day 2 (10 mg/kg): 0.6616 | p, Sal vs. drug, Dunnett test: Immobility Time (min 1-6), Forced Swim Test Day 2 (10 mg/kg): >0.9999 | p, Sal vs. drug, Dunnett test: Immobility Time (min 2), Forced Swim Test Day 2 (10 mg/kg): 0.9991 | p, Sal vs. drug, Dunnett test: Immobility Time (min 4), Forced Swim Test Day 2 (10 mg/kg): 0.9999 | p, Sal vs. drug, Dunnett test: Immobility Time (min 5), Forced Swim Test Day 2 (10 mg/kg): 0.9877 | p, Sal vs. drug, Dunnett test: Immobility Time (min 6), Forced Swim Test Day 2 (10 mg/kg): 0.9994 | p, Sal vs. drug, Dunnett test: Immobility Time Average (min 3-6), Forced Swim Test Day 2 (10 mg/kg): 0.9999 | * (significance), Immobility Time (min 1) [1]: ** (** p<0.01) | p, Immobility Time (min 1) [1]: 0.0031 | p, Immobility Time (min 1-6) [1]: 0.8484 | p, Immobility Time (min 3) [1]: 0.9997 | p, Immobility Time (min 4) [1]: >0.9999 | p, Immobility Time (min 5) [1]: >0.9999 | p, Immobility Time (min 6) [1]: 0.9993 | p, Immobility Time Average (min 3-6) [1]: 0.9997 | p, Immobility Time (min 1) [2]: 0.0820 | p, Immobility Time (min 1-6) [2]: 0.0650 | p, Immobility Time (min 3) [2]: 0.9489 | p, Immobility Time (min 4) [2]: 0.9482 | p, Immobility Time (min 5) [2]: 0.9436 | p, Immobility Time (min 6) [2]: 0.6982 | p, Immobility Time Average (min 3-6) [2]: 0.7901 | * (significance), Immobility Time (min 1) [3]: *** (*** p<0.0001) | p, Immobility Time (min 1) [3]: <0.0001 | p, Immobility Time (min 1-6) [3]: 0.5664 | p, Immobility Time (min 3) [3]: 0.9993 | p, Immobility Time (min 4) [3]: 0.9993 | p, Immobility Time (min 5) [3]: 0.9869 | p, Immobility Time (min 6) [3]: >0.9999 | p, Immobility Time Average (min 3-6) [3]: 0.9992 | * (significance), Immobility Time (min 1) [4]: * (* p<0.05) | * (significance), Immobility Time (min 1-6) [4]: * (* p<0.05) | p, Immobility Time (min 1) [4]: 0.0277 | p, Immobility Time (min 1-6) [4]: 0.0361 | p, Immobility Time (min 3) [4]: 0.4573 | p, Immobility Time (min 4) [4]: 0.8163 | p, Immobility Time (min 5) [4]: 0.9482 | p, Immobility Time (min 6) [4]: 0.6194
